In patent publication US6358885B1, “Substituted phenylheterocyclic herbicides” (Mississippi State University, priority 1992, dated 2002):

Key:
sorghum = assay: Test B preemergence/postemergence greenhouse plant response rating 0 to 10; type: in vivo, Sorghum bicolor; settings: 0 to 10 scale
In short: (§1)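 Planted seeds are treated preemergence with compound dissolved in a non-phytotoxic solvent, while postemergence applications go onto plants of two to eighteen cm. Plants stay in the greenhouse twelve to sixteen days and are then rated visually relative to controls.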

barnyardgrass = assay: as above; type: in vivo, Echinochloa crus-galli; settings: 0 to 10 scale
In short: as §1

crabgrass [1] = assay: as above; type: in vivo, Digitaria spp.; settings: 0 to 10 scale
In short: as §1

bedstraw = assay: Test C preemergence/postemergence greenhouse plant response rating 0 to 100; type: in vivo, Galium aparine; settings: POSTEMERGENCE; for Plant response rating, Bedstraw: 0 to 100 scale
In short: (§2)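 Compounds in non-phytotoxic solvent applied preemergence to sandy loam one day after planting, postemergence at the 1–4 leaf stage, or to ~2.5 cm floodwater over silt loam.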

wild oat = assay: as above; type: in vivo, Avena fatua; settings: POSTEMERGENCE; for Plant response rating, Wild oat: 0 to 100 scale
In short: as §2

giant foxtail [2] = assay: Test B preemergence/postemergence greenhouse plant response rating 0 to 10; type: in vivo, Setaria faberii; settings: 0 to 10 scale
In short: as §1

crabgrass [3] = assay: Test C preemergence/postemergence greenhouse plant response rating 0 to 100; type: in vivo, Digitaria sanguinalis; settings: POSTEMERGENCE; for Plant response rating, Crabgrass: 0 to 100 scale
In short: as §2

chickweed [4] = assay: Test B preemergence/postemergence greenhouse plant response rating 0 to 10; type: in vivo, Stellaria media; settings: 0 to 10 scale
In short: as §1

wheat = assay: as above; type: in vivo, Triticum aestivum; settings: 0 to 10 scale
In short: as §1

corn = assay: as above; type: in vivo, Zea mays; settings: 0 to 10 scale
In short: as §1

giant foxtail [5] = assay: Test C preemergence/postemergence greenhouse plant response rating 0 to 100; type: in vivo, Setaria faberii; settings: POSTEMERGENCE; for Plant response rating, Giant foxtail: 0 to 100 scale
In short: as §2

chickweed [6] = assay: as above; type: in vivo, Stellaria media; settings: POSTEMERGENCE; for Plant response rating, Chickweed: 0 to 100 scale
In short: as §2

wild buckwheat = assay: as above; type: in vivo, Polygonum convolvulus; settings: POSTEMERGENCE; for Plant response rating, Wild buckwheat: 0 to 100 scale
In short: as §2

downy brome = assay: as above; type: in vivo, Bromus tectorum; settings: POSTEMERGENCE; for Plant response rating Downy Brome: 0 to 100 scale
In short: as §2

barley = assay: Test B preemergence/postemergence greenhouse plant response rating 0 to 10; type: in vivo, Hordeum vulgare; settings: 0 to 10 scale
In short: as §1

duck salad = assay: Test C flood test plant response rating 0 to 100; type: in vivo, Heteranthera limosa; settings: for Plant response rating (0 to 100), Duck salad: under POSTEMERGENCE head (flood test species); for Plant response rating Duck salad: flood test species listed under POSTEMERGENCE, 0 to 100 scale
In short: as §2

rice = assay: Test C flood test plant response rating 0 to 100; type: in vivo, Oryza sativa; settings: for Plant response rating (0 to 100), Rice Japonica: under POSTEMERGENCE head (flood test species); for Plant response rating Rice Japonica: flood test species listed under POSTEMERGENCE, 0 to 100 scale
In short: as §2

rape = assay: Test B preemergence/postemergence greenhouse plant response rating 0 to 10; type: in vivo, Brassica napus; settings: 0 to 10 scale
In short: as §1

CCOC(=O)COc1cc(-c2nn3c(c2Cl)CCCC3)c(F)cc1Cl [Compound 42]
Plant response rating, Sorghum (sorghum; POSTEMERGENCE, Rate 50 g/ha): 4
Plant response rating, Sorghum (sorghum; PREEMERGENCE, Rate 50 g/ha): 0
Plant response rating, Sorghum (sorghum; Rate 200 g/ha, POSTEMERGENCE): 5
Plant response rating, Sorghum (sorghum; Rate 200 g/ha, PREEMERGENCE): 0
Plant response rating, Barnyardgrass (barnyardgrass; POSTEMERGENCE, Rate 50 g/ha): 5
Plant response rating, Barnyardgrass (barnyardgrass; POSTEMERGENCE, Rate 200 g/ha): 8
Plant response rating, Barnyardgrass (barnyardgrass; PREEMERGENCE, Rate 50 g/ha): 0
Plant response rating, Barnyardgrass (barnyardgrass; Rate 200 g/ha, PREEMERGENCE): 0
Plant response rating, Crabgrass (crabgrass [1]; POSTEMERGENCE, Rate 50 g/ha): 2
Plant response rating, Crabgrass (crabgrass [1]; POSTEMERGENCE, Rate 200 g/ha): 3
Plant response rating, Crabgrass (crabgrass [1]; PREEMERGENCE, Rate 50 g/ha): 0
Plant response rating, Crabgrass (crabgrass [1]; Rate 200 g/ha, PREEMERGENCE): 0
Plant response rating, Bedstraw (bedstraw; 62 g/ha): 100
Plant response rating, Bedstraw (bedstraw; 125 g/ha): 100
Plant response rating (0 to 100), Bedstraw (bedstraw; Rate 16 g/ha): 80
Plant response rating (0 to 100), Bedstraw (bedstraw; Rate 31 g/ha): 90
Plant response rating, Wild oat (wild oat; 62 g/ha): 30
Plant response rating, Wild oat (wild oat; 125 g/ha): 30
Plant response rating (0 to 100), Wild oat (wild oat; Rate 16 g/ha): 10
Plant response rating (0 to 100), Wild oat (wild oat; Rate 31 g/ha): 10
Plant response rating, Giant foxtail (giant foxtail [2]; POSTEMERGENCE, Rate 50 g/ha): 3
Plant response rating, Giant foxtail (giant foxtail [2]; PREEMERGENCE, Rate 50 g/ha): 0
Plant response rating, Giant foxtail (giant foxtail [2]; Rate 200 g/ha, POSTEMERGENCE): 4
Plant response rating, Giant foxtail (giant foxtail [2]; Rate 200 g/ha, PREEMERGENCE): 0
Plant response rating, Crabgrass (crabgrass [3]; 62 g/ha): 10
Plant response rating, Crabgrass (crabgrass [3]; 125 g/ha): 40
Plant response rating (0 to 100), Crabgrass (crabgrass [3]; Rate 16 g/ha): 10
Plant response rating (0 to 100), Crabgrass (crabgrass [3]; Rate 31 g/ha): 10
Plant response rating, Chickweed (chickweed [4]; POSTEMERGENCE, Rate 50 g/ha): 4
Plant response rating, Chickweed (chickweed [4]; POSTEMERGENCE, Rate 200 g/ha): 8
Plant response rating, Chickweed (chickweed [4]; PREEMERGENCE, Rate 50 g/ha): 0
Plant response rating, Chickweed (chickweed [4]; Rate 200 g/ha, PREEMERGENCE): 0
Plant response rating, Wheat (wheat; POSTEMERGENCE, Rate 50 g/ha): 2
Plant response rating, Wheat (wheat; PREEMERGENCE, Rate 50 g/ha): 0
Plant response rating, Wheat (wheat; Rate 200 g/ha, POSTEMERGENCE): 5
Plant response rating, Wheat (wheat; Rate 200 g/ha, PREEMERGENCE): 0
Plant response rating, Corn (corn; POSTEMERGENCE, Rate 50 g/ha): 7
Plant response rating, Corn (corn; POSTEMERGENCE, Rate 200 g/ha): 9
Plant response rating, Corn (corn; PREEMERGENCE, Rate 50 g/ha): 0
Plant response rating, Corn (corn; Rate 200 g/ha, PREEMERGENCE): 0
Plant response rating, Giant foxtail (giant foxtail [5]; 62 g/ha): 50
Plant response rating, Giant foxtail (giant foxtail [5]; 125 g/ha): 70
Plant response rating (0 to 100), Giant foxtail (giant foxtail [5]; Rate 16 g/ha): 30
Plant response rating (0 to 100), Giant foxtail (giant foxtail [5]; Rate 31 g/ha): 30
Plant response rating, Chickweed (chickweed [6]; 62 g/ha): 50
Plant response rating, Chickweed (chickweed [6]; 125 g/ha): 60
Plant response rating (0 to 100), Chickweed (chickweed [6]; Rate 16 g/ha): 20
Plant response rating (0 to 100), Chickweed (chickweed [6]; Rate 31 g/ha): 40
Plant response rating, Wild buckwheat (wild buckwheat; 62 g/ha): 100
Plant response rating, Wild buckwheat (wild buckwheat; 125 g/ha): 100
Plant response rating (0 to 100), Wild buckwheat (wild buckwheat; Rate 16 g/ha): 60
Plant response rating (0 to 100), Wild buckwheat (wild buckwheat; Rate 31 g/ha): 70
Plant response rating Downy Brome (downy brome; 62 g/ha): 30
Plant response rating Downy Brome (downy brome; 125 g/ha): 50
Plant response rating (0 to 100), Downy Brome (downy brome; Rate 16 g/ha): 20
Plant response rating (0 to 100), Downy Brome (downy brome; Rate 31 g/ha): 30
Plant response rating, Barley (barley; POSTEMERGENCE, Rate 50 g/ha): 3
Plant response rating, Barley (barley; POSTEMERGENCE, Rate 200 g/ha): 4
Plant response rating, Barley (barley; PREEMERGENCE, Rate 50 g/ha): 0
Plant response rating, Barley (barley; Rate 200 g/ha, PREEMERGENCE): 0
Plant response rating (0 to 100), Duck salad (duck salad; Rate 16 g/ha): 0
Plant response rating (0 to 100), Duck salad (duck salad; Rate 31 g/ha): 0
Plant response rating Duck salad (duck salad; 62 g/ha): 0
Plant response rating Duck salad (duck salad; 125 g/ha): 20
Plant response rating (0 to 100), Rice Japonica (rice; Rate 16 g/ha): 0
Plant response rating (0 to 100), Rice Japonica (rice; Rate 31 g/ha): 10
Plant response rating Rice Japonica (rice; 62 g/ha): 20
Plant response rating Rice Japonica (rice; 125 g/ha): 40
Plant response rating, Rape (rape; POSTEMERGENCE, Rate 50 g/ha): 9
Plant response rating, Rape (rape; PREEMERGENCE, Rate 50 g/ha): 2
Plant response rating, Rape (rape; Rate 200 g/ha, POSTEMERGENCE): 10
Plant response rating, Rape (rape; Rate 200 g/ha, PREEMERGENCE): 3
